Experimental data as given in PubChem BioAssay AID1996.
≈ marks a conversion by molar mass, not a printed value.

Conditions: buffer; pH 7.4; 200.0 µM

`CC(=O)Nc1ccc(CCc2nc3ccccc3[nH]2)cc1` and `Cc1cccc(CNCCc2c[nH]c3ccccc23)c1.O=C(O)C(=O)O` cannot be ordered by solubility kinetic: > 41.9 µg/mL for the first, > 53.2 µg/mL for the second.

Going from `Cc1ccccc1NC(=O)NC1(C(=O)NCc2ccco2)CCCCC1` to `O=C(Nc1ccc(F)cc1)C(NC1CCCCC1)c1ccccc1` (stereo unspecified), the solubility kinetic rises from 8.5 µg/mL (≈ 23.9 µM) to 40.6 µg/mL (≈ 124 µM) (4.8-fold).

Compared with `O=C(COc1ccc(-c2ccccc2)cc1)Nc1cccnc1`, `CN=C(Nc1cccnc1)c1ccccc1` is higher in solubility kinetic: 4.2 µg/mL (≈ 13.8 µM) for the first, > 31.7 µg/mL for the second.

Compared with `CCc1nonc1NC(=O)c1oc2c(C)c(C)ccc2c1C`, `Cc1ccc(C(=O)CSc2nc(O)cc(=O)[nH]2)cc1C` is higher in solubility kinetic: 0.6 µg/mL (≈ 2 µM) for the first, > 43.6 µg/mL for the second.

First: O=C(/C=C/c1cccnc1)c1cc(F)ccc1O
Second: Cc1ccc(Nc2nc(-c3cccnc3)cs2)cc1C
The solubility kinetic of the first is 50-fold higher: 19.8 µg/mL (≈ 81.4 µM) for the first, 0.4 µg/mL (≈ 1.42 µM) for the second.

First: NS(=O)(=O)c1ccc(CCNCC(=O)NC2CC2)cc1
Second: O=C(COC(=O)CCC1CCCC1)NCc1ccc(Cl)cc1
The solubility kinetic of the first is higher: 26.3 µg/mL (≈ 88.4 µM) for the first, < 0.7 µg/mL for the second.

First: Cc1cc(C)cc(C(=O)OCC(=O)NC(=O)NC2CCCC2)c1
Second: O=C(COC(=O)COc1cc(Cl)c(Cl)cc1Cl)NC1CC1
The solubility kinetic of the first is 5.8-fold lower: 4.1 µg/mL (≈ 12.9 µM) for the first, 23.6 µg/mL (≈ 66.9 µM) for the second.

`COc1ccc(-c2noc(CN(C(=O)c3ccoc3C)C(C)C)n2)cc1` and `COc1ccc(-c2ccc(C(=O)O)c(=O)[nH]2)cc1` cannot be ordered by solubility kinetic: 38.7 µg/mL (≈ 109 µM) for the first, > 36.8 µg/mL for the second.

`Cc1noc(C)c1CSCC(=O)Nc1cccc(C(F)(F)F)c1` and `O=C(CSc1ncccn1)Nc1ccc2[nH]c(=O)[nH]c2c1` cannot be ordered by solubility kinetic: > 51.7 µg/mL for the first, > 45.2 µg/mL for the second.

Going from `COc1ccc(-c2csc(Nc3ncccn3)n2)cc1C` to `O=S(=O)(Nc1ncccn1)c1ccccc1`, the solubility kinetic rises from < 0.1 µg/mL to > 35.3 µg/mL.

Going from `CN(C)c1cccc(C(=O)NC2CCCc3ccccc32)c1` (stereo unspecified) to `O=C(c1cc2c(s1)CCCC2)N1CCN(c2ccccc2)CC1`, the solubility kinetic falls from 11.6 µg/mL (≈ 39.4 µM) to 1.5 µg/mL (≈ 4.59 µM) (7.7-fold).

Compared with `Cc1cc(Cl)ccc1OCC(=O)NC(=S)Nc1ccc(Cl)cn1`, `COC(=O)c1ccccc1Nc1ccnc(Cl)n1` is higher in solubility kinetic: < 0.3 µg/mL for the first, 32.1 µg/mL (≈ 122 µM) for the second.

`Cn1ccnc1SCC(=O)Nc1cc(F)ccc1F` and `O=C(c1ccoc1)N1CCCC(Nc2ccc(F)c(F)c2)C1` (stereo unspecified) are within 1.5-fold of each other in solubility kinetic: 41.8 µg/mL (≈ 148 µM) for the first, 44.5 µg/mL (≈ 145 µM) for the second.

Going from `CCOc1ccc(NC(=S)Nc2cccc3cnccc23)cc1` to `Cc1ccc(C(=O)NC(=S)NCc2ccccc2)cc1`, the solubility kinetic falls from 24.6 µg/mL (≈ 76.1 µM) to < 0.3 µg/mL.

`Cc1cccnc1NC(=O)C1CCC1` and `Cc1cccc(C)c1NC(=O)CN1CCCC1` are within 1.5-fold of each other in solubility kinetic: 23.4 µg/mL (≈ 123 µM) for the first, 31.3 µg/mL (≈ 135 µM) for the second.

Compared with `CS(=O)(=O)N1CCC(CO)(Cc2ccccc2C(F)(F)F)CC1`, `CSc1ccccc1NC(=O)C1CCCN(S(C)(=O)=O)C1` (stereo unspecified) is higher in solubility kinetic: 48.7 µg/mL (≈ 139 µM) for the first, > 49.3 µg/mL for the second.

First: c1ccc2c3c([nH]c2c1)C1(CCNCC1)NCC3
Second: O=C(CN1C(=O)COc2ccccc21)N1CCOCC1
The solubility kinetic of the first is lower: 34.7 µg/mL (≈ 144 µM) for the first, > 41.4 µg/mL for the second.

First: Cc1ccc(-c2csc3nc[nH]c(=O)c23)c(C)c1
Second: Cc1ccc(NS(=O)(=O)c2ccc3c(c2)n(C)c(=O)n3C)c(C)c1
The solubility kinetic of the first is 7.5-fold lower: 2.4 µg/mL (≈ 9.36 µM) for the first, 17.9 µg/mL (≈ 51.8 µM) for the second.

First: N#Cc1cc([N+](=O)[O-])ccc1NC(=O)COC(=O)c1cnccn1
Second: O=C(c1ccc(C(F)(F)F)cc1)C1CCCN(C(=O)c2cnccn2)C1 (stereo unspecified)
The solubility kinetic of the first is higher: > 49.1 µg/mL for the first, 45.6 µg/mL (≈ 126 µM) for the second.

First: Cc1ccc(CN2CCN(C(=O)CC(C)C)CC2)cc1
Second: CCCC(=O)N1CCC(O)(c2cccc(F)c2)CC1
The solubility kinetic of the first is lower: 25.1 µg/mL (≈ 91.5 µM) for the first, > 39.8 µg/mL for the second.

First: CCOC(=O)c1c(NC(=O)Nc2ccc(C)cc2)sc2c1CCN(C)C2
Second: CCOc1ccc(C(=O)CCN2CCOCC2)cc1.Cl
The solubility kinetic of the first is 30-fold lower: 1.5 µg/mL (≈ 4.02 µM) for the first, 44.9 µg/mL for the second.

Compared with `COc1cc(C(=O)Nc2ccccc2C(=O)Nc2ccccn2)cc(OC)c1OC`, `COc1cc(C(=O)c2ccccc2)c([N+](=O)[O-])cc1OC` is higher in solubility kinetic: 4.6 µg/mL (≈ 11.3 µM) for the first, > 43.1 µg/mL for the second.

Going from `Cc1cc(C)c(S(=O)(=O)N2CCCC2)c(C)c1` to `COC(=O)c1ccc(CNC(=O)c2ccc(S(=O)(=O)N3CCCCCC3)cc2)cc1`, the solubility kinetic falls from 30.4 µg/mL (≈ 120 µM) to 3.6 µg/mL (≈ 8.36 µM) (8.4-fold).

Compared with `COC(OC)c1ccnc(SCc2ccccc2Cl)n1`, `COc1ccccc1-c1ccc(/C=N/O)o1` is 4.5-fold lower in solubility kinetic: 17.6 µg/mL (≈ 56.6 µM) for the first, 3.9 µg/mL (≈ 18 µM) for the second.

Going from `COc1ccc(CCNC(=O)c2ccc(C)s2)cc1OC` to `Cc1ccc(C(=O)NCc2ccc3c(c2)OCO3)cc1Cl`, the solubility kinetic falls from > 45.8 µg/mL to < 0.7 µg/mL.

Compared with `O=C(NC1=NCCS1)C1CCN(S(=O)(=O)c2cc([N+](=O)[O-])ccc2Cl)CC1`, `O=C(NCC1CCCCC1)c1ccccc1[N+](=O)[O-]` is higher in solubility kinetic: 20.8 µg/mL (≈ 48 µM) for the first, > 39.3 µg/mL for the second.

`CCCCC#Cc1cncc(C(=O)NN)c1` and `CCCn1c2ccccc2c2cnn(CC(=O)N(CC)CC)c(=O)c21` cannot be ordered by solubility kinetic: > 32.6 µg/mL for the first, > 51.1 µg/mL for the second.

First: O=C(C1CCC1)N1CCN(c2cccc(C(F)(F)F)c2)CC1
Second: O=[N+]([O-])c1cccc2c(N3CCOCC3)ccnc12
The solubility kinetic of the first is lower: 38.8 µg/mL (≈ 124 µM) for the first, > 38.9 µg/mL for the second.

First: COc1ccc2nc(NC(=O)C3CC(=O)N(c4ccccc4)C3)sc2c1 (stereo unspecified)
Second: N#C/C(=C/c1ccc(O)c(O)c1)C(=O)NCc1ccc(Cl)cc1
The solubility kinetic of the first is 64-fold lower: 0.7 µg/mL (≈ 1.91 µM) for the first, 44.9 µg/mL (≈ 137 µM) for the second.

Going from `CCCn1c(=S)[nH]c2sc3c(c2c1=O)CCCC3` to `S=C(NCC1CCCO1)c1ccc(Br)cc1` (stereo unspecified), the solubility kinetic rises from 1.4 µg/mL (≈ 4.99 µM) to 39 µg/mL (≈ 130 µM) (28-fold).

`Cc1cc(Cl)c(Cl)cc1S(=O)(=O)NCCCn1ccnc1` showed a solubility kinetic of 45.2 µg/mL (≈ 130 µM).
